Assay results published in patent US20200129511A1, “COMPOUNDS AND METHODS FOR TREATMENT OF NAFLD AND NASH” (Arena Pharmaceuticals, Inc., priority 2017, published 2020).
Entries after “also recorded” stand apart in the source; their conditions may differ.

How the values were obtained:
male C57bl/6j mice = assay: oral glucose tolerance test (oGTT) in normal lean mice; format: in vivo, mouse; conditions: 1 mg/kg and 10 mg/kg p.o.
Method: (§1) Animals were grouped in regular cages (rats 2/cage, mice 4/cage) with bedding under normal light conditions (lights on 6:30 am-6:30 pm). They were given ad libitum access to food and water. Animals were allowed to acclimate to the facility for several days before handling.
Mouse: Following 2 handling sessions, animals were fasted for 3-16 h.
The oral glucose tolerance test (oGTT) was executed as follows: Compound was administered 0-30 min prior to first blood sample. At time 0, a tail nick and glucose test was performed with a hand-held glucometer, then a bolus of glucose ([…], p.o.) was administered. Glucose was again tested at 20, 40, 60, and 120 minutes post glucose administration. During the entire oGTT, a total volume of approximately 10 drops of blood was collected.

Sprague-Dawley rat = assay: oral glucose tolerance test (oGTT) in Sprague-Dawley rat; format: in vivo
Method: as §1
Rat: Animals are fasted 3-16 h.
The oral glucose tolerance test (OGTT) was executed as follows: At time minus 30 min, blood was collected via a tail nick and a glucose test performed with a hand-held glucometer, and compound was then administered. At time 0, blood was again collected for glucose reading and then a bolus of glucose (3 g/kg p.o., 6 mL/kg) administered. Blood glucose levels were further tested at 30, 60, and 120 min post glucose administration. During the entire oGTT, a total volume of approximately 8 drops of blood was collected. Rats were used twice with a one week lapse between experiments.

ob/ob Mice = assay: oGTT in ob/ob mice; format: in vivo, mouse; conditions: 3 mg/kg
ZDF rat = assay: oGTT in ZDF rat; format: in vivo; conditions: 3 mg/kg
Cynomolgus monkey = assay: oGTT in normal cynomolgus monkey; format: in vivo; conditions: 3 mg/kg
[1] = oral pharmacokinetics in mouse; format: in vivo, Male C57B1 mouse
[2] = oral pharmacokinetics in rat; format: in vivo; conditions: Male Sprague-Dawley rat, 10 mg/kg, 40% HPβCD
[3] = oral pharmacokinetics in dog; format: in vivo; conditions: Male beagle dog, 7.85 mg/kg, 100% PEG400
[4] = oral pharmacokinetics in monkey; format: in vivo; conditions: Male cynomolgus monkey, 10 mg/kg, 100% PEG400
Caco-2 monolayers = assay: permeability across Caco-2 monolayers; format: in vitro ADME
[5] = stability in rat liver microsomes; format: in vitro ADME
[6] = stability in human liver microsomes; format: in vitro ADME
hERG channel = hERG channel (Homo sapiens, UniProt Q12809); assay: hERG patch clamp study; format: cell-based
anesthetized Guinea Pig = assay: cardiovascular effects in the anesthetized Guinea Pig; format: in vivo; conditions: cumulative doses up to 5 mg/kg i.v., compared to vehicle controls
[7] = tested on: Male C57BL/6 mice fed high fat diet; assay: High Fat Diet (HFD) mouse model of non-alcoholic fatty liver disease; format: in vivo; conditions: five times per week for six weeks
Excerpt: Male C57BL/6 mice (8 weeks) were fed either normal or high fat diet (HFD) (60% TD06414, Envigo) and given water ad libitum. […] At 20 weeks, mice were sacrificed and serum plasma was collected for measurement of various biochemical parameters, including serum transaminases.

rat = conditions: 14-day
dog = conditions: 7-day
healthy male volunteers = conditions: cited from earlier work
T2DM patients = conditions: cited from earlier work
mice fed a high-fat diet = conditions: cited from earlier work
[8] = Sprague-Dawley rat, 3-30 mg/kg PO
[9] = Male C57B1 mouse, 10 mg/kg, 40% HPβCD
[10] = healthy male volunteers, 2.5-800 mg
[11] = oral single-dose, compared with placebo
[12] = 100 or 500 mg single-dose or 500 mg once daily for 14 days
[13] = multiple dosing, compared to baseline
[14] = oral administration, mice fed a high-fat diet

Chain of hERG channel (Q12809 whole entry): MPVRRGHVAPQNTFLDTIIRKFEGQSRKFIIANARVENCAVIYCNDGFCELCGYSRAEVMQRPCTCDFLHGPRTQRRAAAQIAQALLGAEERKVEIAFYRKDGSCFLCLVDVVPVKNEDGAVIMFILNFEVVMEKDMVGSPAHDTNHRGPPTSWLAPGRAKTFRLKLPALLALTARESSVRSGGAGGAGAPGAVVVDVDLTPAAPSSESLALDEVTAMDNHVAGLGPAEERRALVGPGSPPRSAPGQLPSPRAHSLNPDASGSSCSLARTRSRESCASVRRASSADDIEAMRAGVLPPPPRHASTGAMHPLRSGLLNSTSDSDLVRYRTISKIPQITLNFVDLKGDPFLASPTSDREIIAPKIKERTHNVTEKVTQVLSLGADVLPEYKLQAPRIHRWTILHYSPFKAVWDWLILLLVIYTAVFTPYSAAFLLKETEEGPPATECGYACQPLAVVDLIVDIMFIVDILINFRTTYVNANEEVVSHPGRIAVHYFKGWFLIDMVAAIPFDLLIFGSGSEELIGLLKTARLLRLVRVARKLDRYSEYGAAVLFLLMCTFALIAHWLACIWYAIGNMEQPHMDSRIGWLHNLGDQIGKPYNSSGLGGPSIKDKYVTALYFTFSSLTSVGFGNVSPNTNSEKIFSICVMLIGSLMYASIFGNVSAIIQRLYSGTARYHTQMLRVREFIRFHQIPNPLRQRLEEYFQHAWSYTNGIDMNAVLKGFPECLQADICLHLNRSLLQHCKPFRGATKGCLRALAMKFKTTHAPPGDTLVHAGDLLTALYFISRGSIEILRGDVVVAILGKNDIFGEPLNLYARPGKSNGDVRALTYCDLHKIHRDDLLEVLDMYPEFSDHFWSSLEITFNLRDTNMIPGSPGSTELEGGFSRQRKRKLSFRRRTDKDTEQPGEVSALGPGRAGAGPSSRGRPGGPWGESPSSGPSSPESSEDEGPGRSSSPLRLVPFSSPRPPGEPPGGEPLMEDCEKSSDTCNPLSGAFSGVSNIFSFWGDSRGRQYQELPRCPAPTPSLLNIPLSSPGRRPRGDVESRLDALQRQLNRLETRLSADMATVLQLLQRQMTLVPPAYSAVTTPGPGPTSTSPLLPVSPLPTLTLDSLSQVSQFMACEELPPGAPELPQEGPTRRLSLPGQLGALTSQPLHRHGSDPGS

## COc1c(Nc2ccc(S(C)(=O)=O)nc2C)ncnc1OC1CCN(C(=O)OC(C)C)CC1 [Compound 1, 4-[6-(6-Methanesulfonyl-2-methyl-pyridin-3-ylamino)-5-methoxy-pyrimidin-4-yloxy]-piperidine-1-carboxylic acid isopropyl ester]
Male C57bl/6j mice
  AUCglu during oGTT: significant reduction; also recorded: significant main effect
Sprague-Dawley rat; SD rats, 3 mg/kg
  Compd exposure upon oGTT: 482 ± 116 ng/mL
Sprague-Dawley rat; SD rats, 3 mg/kg, oGTT
  Blood glucose AUC (% of vehicle group): 85.1 ± 1.9 % of vehicle group
Sprague-Dawley rat; [8]
  AUCglu during oGTT: markedly reduced; also recorded: significant main effect
  glucose handling: significantly improved
ob/ob Mice
  Blood glucose AUC (% of vehicle group): 78.4 ± 5.1 % of vehicle group
ZDF rat
  Compd exposure upon oGTT: 1592 ± 128 ng/mL
ZDF rat; oGTT
  Blood glucose AUC (% of vehicle group): 72.8 ± 6.3 % of vehicle group
Cynomolgus monkey
  Compd exposure upon oGTT: 112 ± 16.9 ng/mL
Cynomolgus monkey; oGTT
  Blood glucose AUC (% of vehicle group): 82.8 ± 1.7 % of vehicle group
[1]; [9]
  AUCinf: 319953 ng·h/mL
  Cmax: 25833 ng/mL
  tmax: 2 h
[1]; mouse
  exposure after oral dosing: high
[2]
  % F: 72%
  AUCinf: 12471 ng·h/mL
  Cmax: 1390 ng/mL
  tmax: 1 h
[3]
  % F: 22.1%
  AUCinf: 43743 ng·h/mL
  Cmax: 1983 ng/mL
  tmax: 8 h
[4]
  % F: 68.8%
  AUCinf: 64180 ng·h/mL
  Cmax: 4803 ng/mL
  tmax: 6 h
Caco-2 monolayers; A to B
  permeability across Caco-2 monolayers, A to B: 26 ×10⁻⁶ cm/s
Caco-2 monolayers; B to A
  permeability across Caco-2 monolayers, B to A: 15 ×10⁻⁶ cm/s
[5]
  t1/2 in liver microsomes: > 1 h
[6]
  t1/2 in liver microsomes: > 1 h
hERG channel
  IC50: 13 ± 0.2 µM
Anesthetized Guinea Pig
  effects on mean arterial blood pressure (MAP), heart rate (HR) or electrocardiogram (ECG): did not produce any dose-related, statistically significant effects
[7]; HFD mice, 3, 10 and 30 mg/kg/day
  increases in serum ALT caused by high fat diet: blocked
rat
  preliminary safety findings: no obvious liabilities
dog
  preliminary safety findings: no obvious liabilities
Healthy male volunteers; [10]
  hypoglycemia: not associated with hypoglycemia
  systemic exposure in plasma versus dose: increased in proportion to the dose
  tolerability: well tolerated
Healthy male volunteers; healthy male volunteers, coadministration of food
  influence of food on systemic exposure in plasma: not influenced by coadministration of food
Healthy male volunteers; healthy male volunteers, oral suspension formulation
  terminal elimination half-life: ~13 h
Healthy male volunteers; [11]
  glucose excursion: did not significantly decrease
  insulin secretion: did not significantly decrease glucose excursion or increase insulin secretion
  postmeal plasma glucagon-like peptide 1 (GLP-1) concentration: increased
  postmeal plasma glucose-dependent insulinotropic peptide (GIP) concentration: increased
  postmeal plasma peptide YY (PYY) concentration: increased
T2DM patients; [12]
  hypoglycemia: not associated with hypoglycemia
  tolerability: well tolerated
T2DM patients
  plasma systemic exposure versus dose: increased with increased dose
T2DM patients; [13]
  post-meal gastric insulinotropic peptide concentration: increased
  post-meal total glucagon-like peptide 1 concentration: increased
T2DM patients; multiple-dose administration
  time to attain steady-state: approximately 8 days
T2DM patients; multiple-dose versus single-dose
  plasma systemic exposure after multiple-dose administration: approximately two-fold greater
T2DM patients; single-dose, compared with placebo
  glucose excursion during an oral glucose tolerance test: decreased

## CCc1cnc(N2CCC(c3nc(COc4ccc(-n5cnnn5)cc4)cs3)CC2)nc1 [MBX-2982]
[7]; HFD mice, 10 mg/kg/day
  increases in serum ALT caused by high fat diet: blocked by treatment with Compound 1, but not MBX-2982
Mice fed a high-fat diet; GPR119 KO mice
  hepatic antilipogenesis effects in GPR119 KO mice: abolished
Mice fed a high-fat diet; [14]
  expression levels of SREBP-1 and lipogenesis-related genes: potently inhibited
  hepatic lipid accumulation: potently inhibited
